Reference: patent US11045482B2, “Use of glucocorticoid receptor modulators in the treatment of catecholamine-secreting tumors” (Corcept Therapeutics, Inc., priority 2017, dated 2021)

Legend:
[1] = system: metastatic pheochromocytoma associated with ectopic ACTH secretion; assay: Case of a person with metastatic pheochromocytoma and Cushing syndrome given mifepristone (Example 1); format: in vivo, human; conditions: for catecholamine excess symptoms (palpitations, tremors and panic attacks): despite high dose of atenolol and phenoxybenzamine, before mifepristone
Experimental: A person with metastatic pheochromocytoma associated with ectopic ACTH secretion unresponsive to conventional chemotherapy with CVD (cyclophosphamide, vincristine and dacarbazine) and Sunitinib (tyrosine kinase inhibitors) was enrolled in a phase 2 study with a somatostatin analog. […] At the same time the diagnosis of Cushing syndrome was made and 300 mg of Mifepristone was added to their regimen and the dose was further increased to 600 mg daily two weeks later. […] The plasma epinephrine level after 2 weeks of therapy with mifepristone was decreased by 50%, and the plasma metanephrine level was decreased by 25% after 9 weeks of therapy.

PNMT mRNA = conditions: intact rats; cited from earlier work
[2] = system: PNMT mRNA and enzyme expression; conditions: rats, depletion of corticosteroids by hypophysectomy; cited from earlier work
[3] = system: rat phenylethanolamine N-methyltransferase (PNMT) gene promoter; conditions: RU486 10 μM; cited from earlier work
[4] = system: metastatic or unresectable catecholamine-secreting tumor; assay: Patient with metastatic or unresectable catecholamine-secreting tumor: blood catecholamine level after five weeks of treatment (Examples 2-77); format: in vivo, human
Experimental: (§1) A patient having a metastatic or unresectable catecholamine-secreting tumor, who is not in need of treatment with a glucocorticoid receptor antagonist, and is not receiving exogenous glucocorticoid receptor agonist treatment, is administered an effective amount of mifepristone at a daily dose of 50 mg/kg/day.
as §1, with “20” for “50”
as §1, with “15” for “50”
as §1, with “10” for “50”
as §1, with “5” for “50”
as §1, with “mg/kg/day, and is also administered chemotherapy.” for “mg/kg/day.”
as §1, with “20 mg/kg/day, and is also administered chemotherapy.” for “50 mg/kg/day.”
as §1, with “15 mg/kg/day, and is also administered chemotherapy.” for “50 mg/kg/day.”
as §1, with “10 mg/kg/day, and is also administered chemotherapy.” for “50 mg/kg/day.”
as §1, with “5 mg/kg/day, and is also administered chemotherapy.” for “50 mg/kg/day.”
as §1, with “mg/kg/day, and is also administered an adrenergic antagonist. […]” for “mg/kg/day.”

[5] = system: pheochromocytoma crisis (PC); conditions: cited from earlier work
[6] = after 3 months of therapy with mifepristone
[7] = one week after the discontinuation of mifepristone

Compound: CC(COc1ccccc1)N(CCCl)Cc1ccccc1 (centres unmarked) [phenoxybenzamine]
- catecholamine excess symptoms (palpitations, tremors and panic attacks) [1]: continued to experience significant catecholamine excess symptoms

Compound: CC#CC1(O)CC[C@H]2[C@@H]3C=C(C)C4=CC(=O)C=C[C@]4(C)[C@H]3C(O)C[C@@]21C (some centres unmarked) [RU28362, 11,17-dihydroxy-6-methyl-17-(1-propynyl)androsta-1,4,6-triene-3-one]
- PNMT mRNA levels (PNMT mRNA): rise markedly

Compound: CC(C)NCC(O)COc1ccc(CC(N)=O)cc1 (centres unmarked) [atenolol]
- catecholamine excess symptoms (palpitations, tremors and panic attacks) [1]: continued to experience significant catecholamine excess symptoms

Compound: adrenocorticotropin: stimulates endogenous glucocorticoid production (SYSMEHFRWGKPVGKKRRPVKVYPNGAEDESAEAFPLEF; Corticotropin; UniProt P01189 138-176, looked up)
- decrease of PNMT mRNA and enzyme expression after hypophysectomy [2]: reversed

Compound: CC#C[C@]1(O)CC[C@H]2[C@@H]3CCC4=CC(=O)CCC4=C3[C@@H](c3ccc(N(C)C)cc3)C[C@@]21C [mifepristone, 11β-(4-dimethylaminophenyl)-17β-hydroxy-17α-(1-propynyl)-estra-4,9-dien-3-one]
- inhibition of dexamethasone (1 μM) activation of the PNMT promoter [3]: fully inhibited
- blood level of a catecholamine after five weeks of treatment as compared to the initial level ([4]; daily dose of 1 mg/kg/day, also administered somatostatin): lower
- blood level of a catecholamine after five weeks of treatment as compared to the initial level ([4]; daily dose of 5 mg/kg/day): lower
- blood level of a catecholamine after five weeks of treatment as compared to the initial level ([4]; daily dose of 5 mg/kg/day, also administered a somatostatin analog): lower
- blood level of a catecholamine after five weeks of treatment as compared to the initial level ([4]; daily dose of 5 mg/kg/day, also administered an adrenergic antagonist): lower
- blood level of a catecholamine after five weeks of treatment as compared to the initial level ([4]; daily dose of 5 mg/kg/day, also administered chemotherapy): lower
- blood level of a catecholamine after five weeks of treatment as compared to the initial level ([4]; daily dose of 5 mg/kg/day, also administered somatostatin): lower
- blood level of a catecholamine after five weeks of treatment as compared to the initial level ([4]; daily dose of 5 mg/kg/day, also receives Peptide Receptor Radionuclide Therapy): lower
- blood level of a catecholamine after five weeks of treatment as compared to the initial level ([4]; daily dose of 10 mg/kg/day): lower
- blood level of a catecholamine after five weeks of treatment as compared to the initial level ([4]; daily dose of 10 mg/kg/day, also administered a somatostatin analog): lower
- blood level of a catecholamine after five weeks of treatment as compared to the initial level ([4]; daily dose of 10 mg/kg/day, also administered an adrenergic antagonist): lower
- blood level of a catecholamine after five weeks of treatment as compared to the initial level ([4]; daily dose of 10 mg/kg/day, also administered chemotherapy): lower
- blood level of a catecholamine after five weeks of treatment as compared to the initial level ([4]; daily dose of 10 mg/kg/day, also administered somatostatin): lower
- blood level of a catecholamine after five weeks of treatment as compared to the initial level ([4]; daily dose of 10 mg/kg/day, also receives Peptide Receptor Radionuclide Therapy): lower
- blood level of a catecholamine after five weeks of treatment as compared to the initial level ([4]; daily dose of 15 mg/kg/day): lower
- blood level of a catecholamine after five weeks of treatment as compared to the initial level ([4]; daily dose of 15 mg/kg/day, also administered a somatostatin analog): lower
- blood level of a catecholamine after five weeks of treatment as compared to the initial level ([4]; daily dose of 15 mg/kg/day, also administered chemotherapy): lower
- blood level of a catecholamine after five weeks of treatment as compared to the initial level ([4]; daily dose of 15 mg/kg/day, also receives Peptide Receptor Radionuclide Therapy): lower
- blood level of a catecholamine after five weeks of treatment as compared to the initial level ([4]; daily dose of 20 mg/kg/day): lower
- blood level of a catecholamine after five weeks of treatment as compared to the initial level ([4]; daily dose of 20 mg/kg/day, also administered a somatostatin analog): lower
- blood level of a catecholamine after five weeks of treatment as compared to the initial level ([4]; daily dose of 20 mg/kg/day, also administered an adrenergic antagonist): lower
- blood level of a catecholamine after five weeks of treatment as compared to the initial level ([4]; daily dose of 20 mg/kg/day, also administered an adrenergic antagonist and Peptide Receptor Radionuclide Therapy): lower
- blood level of a catecholamine after five weeks of treatment as compared to the initial level ([4]; daily dose of 20 mg/kg/day, also administered chemotherapy): lower
- blood level of a catecholamine after five weeks of treatment as compared to the initial level ([4]; daily dose of 20 mg/kg/day, also administered chemotherapy and a somatostatin analog): lower
- blood level of a catecholamine after five weeks of treatment as compared to the initial level ([4]; daily dose of 20 mg/kg/day, also administered chemotherapy and an adrenergic antagonist): lower
- blood level of a catecholamine after five weeks of treatment as compared to the initial level ([4]; daily dose of 20 mg/kg/day, also administered chemotherapy and somatostatin): lower
- blood level of a catecholamine after five weeks of treatment as compared to the initial level ([4]; daily dose of 20 mg/kg/day, also administered somatostatin): lower
- blood level of a catecholamine after five weeks of treatment as compared to the initial level ([4]; daily dose of 20 mg/kg/day, also receives Peptide Receptor Radionuclide Therapy): lower
- blood level of a catecholamine after five weeks of treatment as compared to the initial level ([4]; daily dose of 50 mg/kg/day): lower
- blood level of a catecholamine after five weeks of treatment as compared to the initial level ([4]; daily dose of 50 mg/kg/day, also administered an adrenergic antagonist): lower
- blood level of a catecholamine after five weeks of treatment as compared to the initial level ([4]; daily dose of 50 mg/kg/day, also administered chemotherapy): lower
- blood level of a catecholamine after five weeks of treatment as compared to the initial level ([4]; single pharmaceutical composition comprising 50 mg mifepristone and a somatostatin analog, daily for five weeks): lower
- blood level of a catecholamine after five weeks of treatment as compared to the initial level ([4]; single pharmaceutical composition comprising 50 mg mifepristone and an adrenergic antagonist, daily for five weeks, also chemotherapy): lower
- blood level of a catecholamine after five weeks of treatment as compared to the initial level ([4]; single pharmaceutical composition comprising 50 mg mifepristone and somatostatin, daily for five weeks): lower
- blood level of a catecholamine after five weeks of treatment as compared to the initial level ([4]; single pharmaceutical composition comprising 100 mg mifepristone and a somatostatin analog, daily for five weeks): lower
- blood level of a catecholamine after five weeks of treatment as compared to the initial level ([4]; single pharmaceutical composition comprising 100 mg mifepristone and an adrenergic antagonist, daily for five weeks): lower
- blood level of a catecholamine after five weeks of treatment as compared to the initial level ([4]; single pharmaceutical composition comprising 100 mg mifepristone and an adrenergic antagonist, daily for five weeks, also chemotherapy): lower
- blood level of a catecholamine after five weeks of treatment as compared to the initial level ([4]; single pharmaceutical composition comprising 100 mg mifepristone and somatostatin, daily for five weeks): lower
- blood level of a catecholamine after five weeks of treatment as compared to the initial level ([4]; single pharmaceutical composition comprising 300 mg mifepristone and a somatostatin analog, daily for five weeks): lower
- blood level of a catecholamine after five weeks of treatment as compared to the initial level ([4]; single pharmaceutical composition comprising 300 mg mifepristone and an adrenergic antagonist, daily for five weeks): lower
- blood level of a catecholamine after five weeks of treatment as compared to the initial level ([4]; single pharmaceutical composition comprising 300 mg mifepristone and an adrenergic antagonist, daily for five weeks, also chemotherapy): lower
- blood level of a catecholamine after five weeks of treatment as compared to the initial level ([4]; single pharmaceutical composition comprising 300 mg mifepristone and somatostatin, daily for five weeks): lower
- plasma epinephrine level decreased by ([1]; after 2 weeks of therapy with mifepristone (300 mg)): 50%
- metanephrine level [1, 6]: slightly elevated
- symptoms of catecholamine excess [1, 6]: controlled
- adverse event ([1]; after 3 months of therapy, mifepristone temporarily withheld): vaginal bleeding
- plasma metanephrine level decreased by ([1]; after 9 weeks of therapy (300 mg, increased to 600 mg daily two weeks later)): 25%
- metanephrine measurement after discontinuation compared to the level during mifepristone dosing [1, 7]: fourfold increase
- symptoms of catecholamine excess after discontinuation [1, 7]: worse symptoms of catecholamine excess
- symptoms related to cortisol excess as well as to catecholamine excess ([1]; one week after the institution of mifepristone (300 mg), added to somatostatin analog, atenolol, phenoxybenzamine): dramatic improvement

Compound: C[C@@H]1C[C@H]2[C@@H]3CCC4=CC(=O)C=C[C@]4(C)[C@@]3(F)[C@@H](O)C[C@]2(C)[C@@]1(O)C(=O)CO [dexamethasone]
- pheochromocytoma crisis cases ([5]; 1 mg given as a DST in patients with pheochromocytoma): no cases have been reported
- pheochromocytoma crisis ([5]; larger doses, as low as 2 mg): may trigger a PC
